This assay concerns ex vivo perfused rabbit heart (ventricular myocytes), Adgal adenovirus gene transfer. The format is cell-based.

The record followed here is US6992070B2 (priority 2000, dated 2006).

Regarding `CCCc1nn(C)c2c(=O)[nH]c(-c3cc(S(=O)(=O)N4CCN(C)CC4)ccc3OCC)nc12` [Sildenafil, 5-[2-ethoxy-5-(4-methylpiperazin-1-ylsulphonyl)phenyl]-1-methyl-3-n-propyl-1,6-dihydro-7H-pyrazolo[4,3d]pyrimidin-7-one], the “percentage of infected cells” value is reported as “increased the percentage of infected cells” and the “percentage of infected cells in the absence of VEGF” value was “No change”.
For the molecule `O=[N+]([O-])OCC(CO[N+](=O)[O-])O[N+](=O)[O-]` [nitroglycerin], the infection efficiency entry is “replicates the increase in infection efficiency” and the “pretreatment (exposure) time required for the enhancement of infection” value (“pretreatment (exposure) time required” for short) is given as 2 min.
As for `Nc1nc2c(nc(Br)n2[C@@H]2O[C@@H]3COP(=O)(O)O[C@H]3[C@H]2O)c(=O)[nH]1` [8-Br-cGMP], the infection efficiency entry was “replicates the increase in infection efficiency” and the “pretreatment (exposure) time required” value was 2 min.
On to `NCCc1c[nH]c2ccc(O)cc12` [serotonin], for which the “pretreatment (exposure) time required” value came to 15 min.
On to `CCCOc1ccccc1-c1nc2nn[nH]c2c(=O)[nH]1` [zaprinast], for which the “percentage of infected cells” value is reported as “increased the percentage of infected cells” and the “percentage of infected cells in the absence of VEGF” value is listed as “No change”.
